Test results published in US20240270821A1, “GIP/GLP1/GCG TRI-RECEPTOR AGONISTS AND USES THEREOF” (priority 2023, published 2024).
Like-named read-outs stand apart in the source and are kept apart here. Starred links: 1 amine or outer side, 2 acyl side, 3 side chain; linkers in the order of their positions; H or OH if unused. Non-standard residues stand in square brackets, D forms with d. Residues, ends and D or L forms follow the SMILES beside them. Groups on a side chain read outwards from the residue. No end group written: not given here. *: point of attachment. C18 diacid = O=C(O)CCCCCCCCCCCCCCCCC(=O)*; αMePhe(2-F) = C[C@](N)(Cc1ccccc1F)C(=O)O; γGlu = O=C(O)[C@H](CCC(=O)[*:2])N[*:1]; αMe4Pal = C[C@](N)(Cc1ccncc1)C(=O)O; αMeY = C[C@](N)(Cc1ccc(O)cc1)C(=O)O; 4Pal = N[C@@H](Cc1ccncc1)C(=O)O; αMeL = CC(C)C[C@](C)(N)C(=O)O; αMeS = C[C@](N)(CO)C(=O)O; Iva = CC[C@](C)(N)C(=O)O; Orn = NCCC[C@H](N)C(=O)O; AEEA = NCCOCCOCC(=O)O; Aib = CC(C)(N)C(=O)O

Assays:
Format in all cases: cell-based
[1] = target: human GcgR (Homo sapiens, UniProt P47871); assay: Functional cAMP activity in the presence of 1% HSA; settings: read-out: cAMP Rel EC50, hGcgR
[2] = target: T1, hGIPR (Homo sapiens, UniProt P48546); assay: Functional cAMP activity in the presence of 1% HSA; settings: read-out: cAMP Rel EC50, hGIPR
T1 sequence (P48546 22-466): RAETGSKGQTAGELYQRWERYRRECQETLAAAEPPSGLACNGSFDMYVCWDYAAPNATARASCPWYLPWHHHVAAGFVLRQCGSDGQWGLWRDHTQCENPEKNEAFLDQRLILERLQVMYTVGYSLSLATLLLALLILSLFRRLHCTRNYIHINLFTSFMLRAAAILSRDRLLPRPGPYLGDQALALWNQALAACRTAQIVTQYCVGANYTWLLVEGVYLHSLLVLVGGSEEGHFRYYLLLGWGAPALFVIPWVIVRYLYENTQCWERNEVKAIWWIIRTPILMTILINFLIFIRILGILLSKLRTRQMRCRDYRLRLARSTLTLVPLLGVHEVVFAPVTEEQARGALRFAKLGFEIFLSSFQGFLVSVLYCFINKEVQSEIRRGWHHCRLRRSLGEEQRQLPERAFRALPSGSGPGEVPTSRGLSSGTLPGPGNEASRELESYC

[3] = target: T2, hGLP-1R (Homo sapiens, UniProt P43220); assay: Functional cAMP activation in the presence of 0.1% casein (no HSA); settings: read-out: Relative cAMP EC50, hGLP-1R;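 further: intracellular cAMP rise after 30 min at 37 °C read by HTRF, normalized between buffer only (0%) and maximal control ligand (100%), four-parameter variable-slope fit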
[4] = target: T1, hGIPR; assay: as above; settings: read-out: Relative cAMP EC50, hGIPR
[5] = target: T2, hGLP-1R; assay: Functional cAMP activity in the presence of 1% HSA; settings: read-out: cAMP Rel EC50, hGLP-1R
[6] = target: hGcgR (Homo sapiens, UniProt P47871); assay: Functional cAMP activation in the presence of 0.1% casein (no HSA); settings: read-out: Relative cAMP EC50, hGcgR;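 further: intracellular cAMP rise after 30 min at 37 °C, read by HTRF against a cAMP standard curve, scaled from buffer only (0%) to maximal control ligand response (100%)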
[7] = in the presence of 0.1% casein (no HSA), geometric mean
[8] = 0.1% casein, no HSA, geometric mean
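Wherever Relative cAMP EC50, hGIPR is given: intracellular cAMP rise after 30 min at 37 °C read by HTRF against a standard curve, scaled between buffer alone (0%) and top control ligand concentration (100%), four-parameter fit.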

T2 sequence (P43220 24-463): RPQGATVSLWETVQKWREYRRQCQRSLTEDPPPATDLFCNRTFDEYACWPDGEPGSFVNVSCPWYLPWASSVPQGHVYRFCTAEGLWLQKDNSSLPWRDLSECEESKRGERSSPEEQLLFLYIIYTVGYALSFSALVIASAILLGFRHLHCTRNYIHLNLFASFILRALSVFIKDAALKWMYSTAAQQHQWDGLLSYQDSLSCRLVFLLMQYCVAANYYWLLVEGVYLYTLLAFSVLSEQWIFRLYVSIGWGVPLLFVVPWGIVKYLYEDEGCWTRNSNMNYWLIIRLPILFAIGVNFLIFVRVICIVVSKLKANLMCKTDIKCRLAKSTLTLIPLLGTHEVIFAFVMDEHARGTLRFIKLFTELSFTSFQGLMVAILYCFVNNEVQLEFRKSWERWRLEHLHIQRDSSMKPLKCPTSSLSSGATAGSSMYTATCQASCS
Chain of hGcgR (P47871 26-477): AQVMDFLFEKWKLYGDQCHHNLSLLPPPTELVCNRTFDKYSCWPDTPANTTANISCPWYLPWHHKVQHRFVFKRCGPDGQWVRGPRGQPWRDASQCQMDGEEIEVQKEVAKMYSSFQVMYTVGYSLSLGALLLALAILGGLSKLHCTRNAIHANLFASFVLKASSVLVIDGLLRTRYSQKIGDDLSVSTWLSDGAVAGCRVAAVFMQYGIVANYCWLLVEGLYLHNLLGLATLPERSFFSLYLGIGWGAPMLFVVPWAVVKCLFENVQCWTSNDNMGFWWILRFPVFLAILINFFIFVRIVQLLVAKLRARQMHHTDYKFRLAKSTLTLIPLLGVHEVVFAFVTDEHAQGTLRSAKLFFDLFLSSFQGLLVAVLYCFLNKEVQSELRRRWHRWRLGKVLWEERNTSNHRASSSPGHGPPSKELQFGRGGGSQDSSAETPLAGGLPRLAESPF
Chain of human GcgR (P47871 26-477): as above

Row | Molecule | EC50 [1] | EC50 [2] | EC50 [3, 7] | EC50 [4, 7] | EC50 [5] | EC50 [6, 7] | EC50 [3] | EC50 [4] | EC50 [6] | EC50 [3, 8] | EC50 [4, 8] | EC50 [6, 8]
1 | CC[C@H](C)[C@H](NC(=O)[C@H](Cc1ccccc1)NC(=O)C(C)(C)NC(=O)C(C)(C)NC(=O)[C@H](CCC(N)=O)NC(=O)[C@H](C)NC(=O)[C@H](CCCCNC(=O)COCCOCCNC(=O)CC[C@H](NC(=O)CCCCCCCCCCCCCCCCCCC(=O)O)C(=O)O)NC(=O)[C@H](CCCN)NC(=O)[C@H](CC(=O)O)NC(=O)[C@H](CC(C)C)NC(=O)[C@](C)(CC(C)C)NC(=O)[C@@H](NC(=O)[C@H](CO)NC(=O)[C@H](Cc1ccncc1)NC(=O)[C@H](CC(=O)O)NC(=O)[C@H](CO)NC(=O)[C@@H](NC(=O)[C@](C)(Cc1ccccc1F)NC(=O)[C@@H](NC(=O)CNC(=O)[C@H](CCC(N)=O)NC(=O)C(C)(C)NC(=O)[C@@H](N)Cc1ccc(O)cc1)[C@@H](C)O)[C@@H](C)O)[C@@H](C)CC)C(=O)N[C@H](CCC(=O)O)C(=O)N[C@@](C)(Cc1ccc(O)cc1)C(=O)N[C@@H](CC(C)C)C(=O)N[C@@H](CC(C)C)C(=O)N[C@@H](CCC(=O)O)C(=O)NCC(=O)NCC(=O)N1CCC[C@H]1C(=O)N[C@@H](CO)C(=O)N[C@@H](CO)C(=O)NCC(=O)N[C@@H](CCC(=O)O)C(=O)N1CCC[C@H]1C(=O)N1CCC[C@H]1C(=O)N1CCC[C@H]1C(=O)N[C@@H](CO)C(N)=O [Example 366] | 1830 nM | 4.27 nM | 0.744 nM | 0.024 nM | 85.9 nM | 4.51 nM | – | – | – | – | – | –
2 | Y[Aib]QGTFTSD[4Pal][αMeS]Q[αMeL]LD[Orn]K([dE-γGlu-C18 diacid])AQ[Iva]QFIQ[αMeY]LLE[Aib]GPSSGAPPPSGGGE-NH2 [Example 1139] | 269 nM | 2.87 nM | 1.85 nM | 0.0431 nM | 155 nM | 5.29 nM | – | – | – | – | – | –
3 | H-Y[Aib]QGT[αMePhe(2-F)]TSD[4Pal][αMeS]I[αMeL]LD[Orn]K([γGlu-γGlu-C18 diacid])AQ[Aib][Orn]FI[dE][αMeY]LSEGGPSSGEPPPSGTEEE-NH2 [Example 562] | 427 nM | 10.2 nM | – | – | 89.5 nM | – | 1.67 nM | 0.284 nM | 6 nM | – | – | –
4 | H-Y[Aib]QGTFTSD[4Pal]SQ[αMeL]LDKK([AEEA-AEEA-γGlu-C18 diacid])AQ[αMe4Pal]AFIEYLIE[Aib]GPSSGAPPPSGS-NH2 [Example 816] | 1100 nM | 15.9 nM | 2.69 nM | 0.297 nM | 310 nM | 6.57 nM | – | – | – | – | – | –
5 | H-Y[Aib]QGT[αMePhe(2-F)]TSDYSI[αMeL]LD[Orn]K([AEEA-γGlu-C18 diacid])AQ[Aib]AFI[dE]YLLEGGPSSGAPPPSEG-NH2 [Example 404] | 735 nM | 2.03 nM | – | – | 32.2 nM | – | 0.217 nM | 0.0102 nM | 4.1 nM | – | – | –
6 | H-Y[Aib]QGT[αMePhe(2-F)]TSD[4Pal][αMeS]I[αMeL]LD[Orn]K([AEEA-γGlu-C18 diacid])AQ[αMe4Pal]EFI[dE][αMeY]LIEGGPSSGAPPPSGGGEE-NH2 [Example 1214] | 210 nM | 0.771 nM | – | – | 50 nM | – | – | – | – | 0.55 nM | 0.00851 nM | 1.85 nM
7 | Y[Aib]QGT[αMePhe(2-F)]TSD[4Pal]SI[αMeL]LD[Orn]K([AEEA-γGlu-C18 diacid])AQ[αMe4Pal][Orn]FI[dE][αMeY]LIEGGPSSGEPPPEGGGE-NH2 [Example 757] | 310 nM | 1.81 nM | – | – | 30.8 nM | – | 0.236 nM | 0.00959 nM | 2.32 nM | – | – | –
8 | H-Y[Aib]QGTFTSD[4Pal]S[Orn][αMeL]LD[Orn]K([γGlu-γGlu-C18 diacid])AQ[αMe4Pal]EFIEYLLAGGPSSGAPPPSGSEE-NH2 [Example 1003] | 371 nM | 15.9 nM | 42.4 nM | 0.272 nM | 1950 nM | 5.07 nM | – | – | – | – | – | –
9 | H-Y[Aib]QGT[αMePhe(2-F)]TSD[4Pal][αMeS]I[αMeL]LD[Orn]K([γGlu-γGlu-C18 diacid])AQ[Aib][Orn]FI[dE][αMeY]LSEGGPSSGEPPPSGGEE-NH2 [Example 568] | 477 nM | 13.2 nM | – | – | 116 nM | – | 0.986 nM | 0.125 nM | 6.13 nM | – | – | –
10 | CC[C@H](C)[C@H](NC(=O)[C@H](Cc1ccccc1)NC(=O)[C@H](C)NC(=O)C(C)(C)NC(=O)[C@H](CCC(N)=O)NC(=O)[C@H](C)NC(=O)[C@H](CCCCNC(=O)COCCOCCNC(=O)CC[C@H](NC(=O)CCCCCCCCCCCCCCCCC(=O)O)C(=O)O)NC(=O)[C@H](CCCCN)NC(=O)[C@H](CC(=O)O)NC(=O)[C@H](CC(C)C)NC(=O)[C@H](CC(C)C)NC(=O)[C@@H](NC(=O)[C@H](CO)NC(=O)[C@H](Cc1ccc(O)cc1)NC(=O)[C@H](CC(=O)O)NC(=O)[C@H](CO)NC(=O)[C@@H](NC(=O)[C@](C)(Cc1ccccc1F)NC(=O)[C@@H](NC(=O)CNC(=O)[C@H](CCC(N)=O)NC(=O)C(C)(C)NC(=O)[C@@H](N)Cc1c[nH]cn1)[C@@H](C)O)[C@@H](C)O)[C@@H](C)CC)C(=O)N[C@@H](CCC(=O)O)C(=O)N[C@@H](Cc1ccc(O)cc1)C(=O)N[C@@H](CC(C)C)C(=O)N[C@@H](CCC(=O)O)C(=O)N[C@@H](CCC(=O)O)C(=O)NCC(=O)NCC(=O)N1CCC[C@H]1C(=O)N[C@@H](CO)C(=O)N[C@@H](CO)C(=O)NCC(=O)N[C@@H](C)C(=O)N1CCC[C@H]1C(=O)N1CCC[C@H]1C(=O)N1CCC[C@H]1C(=O)N[C@@H](CO)C(N)=O [Example 425] (H-H[Aib]QGT[αMePhe(2-F)]TSDYSILLDKK([AEEA-γGlu-C18 diacid])AQ[Aib]AFIEYLEEGGPSSGAPPPS-NH2; N-terminus assumed) | 1150 nM | 46.9 nM | – | – | 20.3 nM | – | 0.15 nM | 0.0997 nM | 5.49 nM | – | – | –
11 | H-Y[Aib]QGTFTSDFS[Orn][αMeL]LDKK([AEEA-γGlu-C18 diacid])AQ[Aib]AFIEYLLE[dA]GHSSGAPPPSGE-NH2 [Example 207] | 770 nM | 15.2 nM | 4.36 nM | 0.321 nM | 225 nM | 4.24 nM | – | – | – | – | – | –
12 | H-Y[Aib]QGT[αMePhe(2-F)]TSD[4Pal]SILLDKK([γGlu-γGlu-C18 diacid])AQ[Aib]AFIEYLEEGGPSSGEPPPSGTGE-NH2 [Example 607] | 565 nM | 6.63 nM | – | – | 139 nM | – | 1.15 nM | 0.0879 nM | 8.91 nM | – | – | –
13 | H-Y[Aib]QGT[αMePhe(2-F)]TSD[4Pal][αMeS]I[αMeL]LD[Orn]K([γGlu-γGlu-C18 diacid])AQ[Aib][Orn]FI[dE]YLIEGGPSSGEPPPSGTEE-NH2 [Example 535] | 238 nM | 1.16 nM | – | – | 29.9 nM | – | 0.418 nM | 0.0183 nM | 3.16 nM | – | – | –
14 | H-Y[Aib]QGTFTSD[4Pal]SQ[αMeL]LDKK([Glu-γGlu-C18 diacid])AQ[αMe4Pal]AFIEYLIAGGPSSGAPPPSGEEE-NH2 [Example 1089] | 2580 nM | 34.6 nM | 2.96 nM | 0.213 nM | 449 nM | 14 nM | – | – | – | – | – | –
15 | Y[Aib]QGTFTSD[4Pal]SR[αMeL]LDKK([AEEA-γGlu-C18 diacid])AQ[αMe4Pal]AFIE[αMeY]LIEGGPSSGAPPPSGS-NH2 [Example 843] | 367 nM | 32.8 nM | 0.874 nM | 0.334 nM | 135 nM | 3.41 nM | – | – | – | – | – | –
16 | H-Y[Aib]QGTFTSD[4Pal]SQ[αMeL]LD[Orn]K([dE-γGlu-C18 diacid])AQ[αMe4Pal]QFIE[αMeY]LLAGGPSSGAPPPSGSEEE-NH2 [Example 1084] | 1390 nM | 17.2 nM | 10.3 nM | 0.0975 nM | 761 nM | 11.5 nM | – | – | – | – | – | –
17 | H-Y[Aib]QGTFTSD[4Pal]SQ[αMeL]LDKK([γGlu-γGlu-C18 diacid])AQ[αMe4Pal]AFIEYLIE[Aib]GPSSGAPPPSGTE-NH2 [Example 1126] | 452 nM | 13.5 nM | 4.56 nM | 0.174 nM | 208 nM | 3.92 nM | – | – | – | – | – | –
